Results on nine molecules are retold here after PubChem BioAssay (NCI).

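Grown in 96-well plates, cells were treated for 48 hours with each compound at five concentrations. Insufficient inhibition: endpoint recorded as highest concentration tested. GI50 is the concentration that inhibits growth by half. TGI: total growth inhibition.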

Some test systems named below: K-562 leukemia; RXF 393 renal; SF-295 CNS; IGROV1 ovarian; NCI-H23 lung; HCT-116 colon; PC-3 prostate; KM12 colon; OVCAR-3 ovarian; HCC-2998 colon.
Experiment in all cases: growth of human tumour cells (NCI), 48 h

Turning to `Cc1cc[c]([Sb]2[O]C(CO)C(C(O)C(O)C(=O)O)[O]2)cc1` (stereo not drawn), the GI50 with K-562 leukemia was 46.5 µM; with RXF 393 renal, 28.2 µM; in the test on SF-295 CNS it was 61.1 µM; with IGROV1 ovarian, greater than 100 µM; with NCI-H23 lung, greater than 100 µM; with HCT-116 colon it was 33.7 µM. For the same molecule, the values for the GI50 in the test with PC-3 prostate, in the test on KM12 colon and in the test on OVCAR-3 ovarian were 57.7 µM, 46.7 µM and greater than 100 µM, respectively. The TGI with K-562 leukemia is greater than 100 µM; in the test with RXF 393 renal, 84.7 µM; in the test with SF-295 CNS it was greater than 100 µM; with IGROV1 ovarian, greater than 100 µM; in the test with NCI-H23 lung, greater than 100 µM; with HCT-116 colon, greater than 100 µM. In addition, the TGI with PC-3 prostate, with KM12 colon and in the test with OVCAR-3 ovarian was greater than 100 µM each time.

On to `Clc1ccc(NCNC2Nc3ccccc3N2)cc1Cl`, for which the TGI in the test on K-562 leukemia, with HCC-2998 colon, with RXF 393 renal, in the test with SF-295 CNS, in the test on NCI-H23 lung and with HCT-116 colon was greater than 100 µM in each case. Further, the TGI was greater than 100 µM with PC-3 prostate, 92.5 µM in the test on KM12 colon and greater than 100 µM in the test on OVCAR-3 ovarian.

Take `C/C(=C1\C(=O)Nc2ccccc21)c1cccc(/C(C)=C2/C(=O)Nc3ccccc32)n1`: the GI50 was 4.35 µM in the test with K-562 leukemia; 2.38 µM in the test with HCC-2998 colon; 12.3 µM with RXF 393 renal; 18.5 µM in the test with SF-295 CNS; 35.6 µM in the test on IGROV1 ovarian; 16.8 µM with NCI-H23 lung. The GI50 was 9.93 µM with HCT-116 colon, 24.4 µM in the test with PC-3 prostate and 4.52 µM in the test on OVCAR-3 ovarian. The TGI in the test on K-562 leukemia is greater than 100 µM; in the test on HCC-2998 colon it was 5.7 µM; in the test on RXF 393 renal, 58.7 µM; in the test on SF-295 CNS, 85.4 µM; with IGROV1 ovarian, greater than 100 µM; in the test on NCI-H23 lung, 60.5 µM. Moreover, the TGI with HCT-116 colon is greater than 100 µM; with PC-3 prostate, greater than 100 µM; with OVCAR-3 ovarian it was 28.2 µM.

On to `Clc1ccc2c(NC3CCC(NC4CCCCC4)CC3)ccnc2c1` (stereo not drawn), for which the GI50 in the test with HCC-2998 colon was 2.49 µM; with RXF 393 renal it was 3.61 µM; in the test with SF-295 CNS, 1.92 µM; in the test on IGROV1 ovarian it was 6.64 µM; with NCI-H23 lung, 7.74 µM; in the test with HCT-116 colon, 3.26 µM. In addition, the GI50 in the test on PC-3 prostate is 11.2 µM; in the test on KM12 colon, 5.34 µM; in the test with OVCAR-3 ovarian, 5.34 µM. The TGI with HCC-2998 colon is 8.13 µM; in the test on RXF 393 renal it was 16.6 µM; in the test on SF-295 CNS it was 5.19 µM; in the test with IGROV1 ovarian, 30.8 µM; in the test on NCI-H23 lung, 35.9 µM; with HCT-116 colon it was 13.9 µM. Further, the TGI in the test with PC-3 prostate came to 43.2 µM; in the test on KM12 colon, 18.9 µM; in the test on OVCAR-3 ovarian it was 23.2 µM.

On to `c1ccc2[nH]c(-c3ccc(Nc4nc(N5CCCC5)nc5[nH]ncc45)cc3)nc2c1`, for which the GI50 with K-562 leukemia was 0.202 µM; in the test on HCC-2998 colon it was 0.294 µM; with RXF 393 renal, 0.814 µM; with SF-295 CNS it was 0.204 µM; with NCI-H23 lung, 0.808 µM; in the test on HCT-116 colon it was 0.203 µM. Also, the figures for the GI50 in the test on PC-3 prostate and with OVCAR-3 ovarian were 1.61 µM and 0.753 µM, respectively. Moreover, the TGI with K-562 leukemia was determined as 0.466 µM; in the test on HCC-2998 colon, 0.826 µM; with RXF 393 renal, 2.27 µM; with SF-295 CNS, 0.477 µM; in the test on NCI-H23 lung, 2.7 µM; with HCT-116 colon, 0.473 µM. Further, the TGI was determined as 4.71 µM with PC-3 prostate and 2.81 µM with OVCAR-3 ovarian.

`CCOC(=O)c1sc2nc(=S)[nH]c(NC(N)=S)c2c1C`: the GI50 was 28.3 µM in the test with K-562 leukemia; 19.1 µM in the test with RXF 393 renal; 24.4 µM in the test with SF-295 CNS; 31.5 µM in the test on IGROV1 ovarian; 14.8 µM in the test with NCI-H23 lung; 22.7 µM with PC-3 prostate. Moreover, the GI50 in the test with KM12 colon was 23.5 µM; with OVCAR-3 ovarian it was 26.4 µM. Further, the TGI in the test on K-562 leukemia was greater than 100 µM; in the test on RXF 393 renal, 47.2 µM; in the test with SF-295 CNS it was 65.8 µM; with IGROV1 ovarian, greater than 100 µM; in the test on NCI-H23 lung it was 37.1 µM; in the test with PC-3 prostate, 94.6 µM. Besides, the TGI was found to be 52.7 µM in the test with KM12 colon and 56.2 µM in the test with OVCAR-3 ovarian.

Regarding `O=C(O)CN(CCN(CC(=O)O)CC(=O)O)CCN(CC(=O)O)CC(=O)O`, the GI50 in the test on HCC-2998 colon is 4.42 µM; in the test on RXF 393 renal, 2.07 µM; in the test on SF-295 CNS, 3.25 µM; in the test with NCI-H23 lung it was 2.45 µM; in the test on HCT-116 colon, 3.42 µM; in the test on PC-3 prostate it was 5.46 µM. Further, the GI50 in the test with KM12 colon was 4.94 µM; in the test with OVCAR-3 ovarian, 3.51 µM. The TGI was 27 µM in the test on HCC-2998 colon; 4.85 µM in the test on RXF 393 renal; 21.3 µM in the test with SF-295 CNS; 10.2 µM in the test on NCI-H23 lung; 12.7 µM in the test on HCT-116 colon; greater than 100 µM in the test with PC-3 prostate. In addition, the TGI with KM12 colon was found to be 37.6 µM; with OVCAR-3 ovarian, 9.84 µM.

For `C=C1C(=O)O[C@@H]2C[C@@]3(C)CCC[C@H](C)C3=C[C@H]12` (tested in a mixture with another compound), the TGI with HCC-2998 colon worked out at 15.5 µM; in the test with RXF 393 renal, 4.07 µM; in the test on SF-295 CNS it was 24.6 µM; in the test on IGROV1 ovarian, 7.71 µM; in the test on NCI-H23 lung it was 5.67 µM; in the test on HCT-116 colon, 2.93 µM. The results for the TGI with PC-3 prostate, with KM12 colon and in the test on OVCAR-3 ovarian were 10 µM, 8.89 µM and 3.44 µM, respectively.

Regarding `CCOc1cc(/C=C/C(=O)CC(=O)/C=C/c2ccc(OC(=O)CNc3nc4ccc(OC)cc4s3)c(OCC)c2)ccc1OC(=O)CNc1nc2ccc(OC)cc2s1`, the GI50 is 2.71 µM in the test with K-562 leukemia; 3.16 µM in the test with HCC-2998 colon; 2.9 µM in the test with RXF 393 renal; 15.4 µM in the test with SF-295 CNS; 7.78 µM in the test on NCI-H23 lung; 3.02 µM in the test on HCT-116 colon. The GI50 with PC-3 prostate is 5.08 µM; in the test with KM12 colon, 2.96 µM; with OVCAR-3 ovarian, 4.45 µM. Further, the TGI with K-562 leukemia was greater than 100 µM; in the test with HCC-2998 colon it was 14.8 µM; in the test with RXF 393 renal, 17 µM; with SF-295 CNS, 33.2 µM; in the test on NCI-H23 lung it was 75.4 µM; in the test on HCT-116 colon it was 15.1 µM. Besides, the TGI worked out at 67.3 µM in the test on PC-3 prostate, 12.1 µM with KM12 colon and 29 µM with OVCAR-3 ovarian.
